Source: PubChem BioAssay AID624167 (Sanford-Burnham Center for Chemical Genomics, 2012)
The source made the active and inactive calls.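 How the source made its calls: active means mean IC50 for reducing PEG3 promoter reporter signal at or below a set limit, with IC50 above the limit in both counter screens; inactive means the rest, including counter screen hits.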

What was measured:
PEG-3 [1] = target: PEG-3 (UniProt Q6IN02); test: Peg3 promoter luciferase inhibitors, potency, dose response, cell-based, HeLa, CREF/GAPDH counter-screen panel (AID 624167); conditions: HeLa PEG-Prom luciferase reporter, overnight, CREF/GAPDH counter-screens, mean of runs
PEG-3 (UniProt Q6IN02), sequence (Q6IN02 whole entry, looked up): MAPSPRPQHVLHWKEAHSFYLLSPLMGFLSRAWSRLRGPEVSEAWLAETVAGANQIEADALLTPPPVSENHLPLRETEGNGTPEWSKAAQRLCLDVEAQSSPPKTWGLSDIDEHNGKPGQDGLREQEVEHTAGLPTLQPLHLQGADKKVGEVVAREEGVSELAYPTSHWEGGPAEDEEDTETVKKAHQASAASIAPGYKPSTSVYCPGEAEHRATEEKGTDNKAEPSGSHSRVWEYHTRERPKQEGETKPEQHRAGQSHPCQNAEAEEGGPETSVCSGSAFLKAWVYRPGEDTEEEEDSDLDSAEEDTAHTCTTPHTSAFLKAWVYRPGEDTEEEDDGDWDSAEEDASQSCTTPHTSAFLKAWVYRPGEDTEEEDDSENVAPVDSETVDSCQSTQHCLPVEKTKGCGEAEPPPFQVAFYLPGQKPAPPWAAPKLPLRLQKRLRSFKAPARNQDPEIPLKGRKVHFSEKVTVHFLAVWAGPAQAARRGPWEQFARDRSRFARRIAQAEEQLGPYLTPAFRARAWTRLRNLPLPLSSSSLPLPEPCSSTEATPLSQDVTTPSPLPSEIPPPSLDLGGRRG

PEG-3 [2] = test: as above; conditions: HeLa PEG-Prom luciferase reporter, overnight, CREF/GAPDH counter-screens
[3] = run 1, dose range 1, individual replicate IC50 per panel
[4] = run 2, dose range 1, individual replicate IC50 per panel

Compound | IC50 (PEG-3 [1]) | IC50 (PEG-3 [2]; [3]) | IC50 (PEG-3 [2]; [4])
CCN(Cc1ccccc1)S(=O)(=O)c1ccc(C(=O)N(CCCN(C)C)c2nc3cc4c(cc3s2)OCCO4)cc1 | inactive | 33.3 µM | > 100 µM
COc1cccc(N2CCN(CC(=O)Nc3ccccc3C(=O)NCc3ccccc3)CC2)c1 | inactive | 16.6 µM | 35 µM
FC(F)Sc1ccc(NC(=S)NC(c2ccccc2)c2ccccc2)cc1 | 18 µM | 19.9 µM | 16 µM
CCN(C(=O)CSc1nc2n[nH]c(C)c2c(=N)n1-c1ccc(Cl)c(C)c1)c1cccc(C)c1 | 20 µM | 19.1 µM | 20.8 µM
COc1ccc(S(=O)(=O)N2c3ccccc3OCC2c2ccccc2)cc1 (centres undefined) | > 100 µM (inactive) | > 100 µM | > 100 µM
CCOC(=O)c1cnc2c(cnn2C)c1NCCCN(C)C | inactive | 18.9 µM | 28.8 µM
O=C(c1ccoc1)N1CCN(c2cc(-c3ccccc3)nc3cc(-c4ccccc4)nn23)CC1 | 11.5 µM | 13.3 µM | 9.7 µM
CCN1CCCC1CN(Cc1cc2ccc(C)cc2[nH]c1=O)C(=S)Nc1ccc(OC)cc1 (centres undefined) | inactive | 42 µM | 37.5 µM
COc1ccc(C2NCCc3c2[nH]c2ccccc32)cc1COc1ccc(F)cc1 (centres undefined) | 12.3 µM | 16.9 µM | 7.75 µM
Cc1cc2sc3ccc(C#CC4(O)CCCCC4)cc3c(=O)c2cc1C | 0.265 µM | 0.265 µM | < 0.2 µM
NC(c1csc(Nc2nccc(C(F)(F)F)n2)n1)C1CCCCC1 (centres undefined) | 15.9 µM | 19.1 µM | 12.8 µM
CNCC[C@H](Oc1cccc2ccccc12)c1cccs1 | 17.7 µM | 18.8 µM | 16.6 µM
CCN1CCN(CCNC(=O)c2ccc(/C=C3\Sc4ccccc4N(Cc4ccccc4F)C3=O)cc2)CC1 | 14.9 µM | 20.2 µM | 9.63 µM
CCN(CC)c1ccc2nc3ccc(N)cc3[n+](-c3ccccc3)c2c1 | 11.1 µM | 9.95 µM | 12.2 µM
Oc1ccc(C[C@H]2CNCCN2CCc2cc(C(F)(F)F)cc(C(F)(F)F)c2)cc1 | inactive | 26.7 µM | 19.8 µM
COCCn1c(C)cc(C(=O)CSc2nnc3ccccn23)c1C | 15.1 µM | 8.34 µM | 21.8 µM
O=C1C(Cl)=C(Nc2ccc(O)cc2)C(=O)c2ccccc21 | 11.6 µM | 16.1 µM | 7.05 µM

Compound | IC50 (PEG-3 [1]) | IC50 (PEG-3 [2]; [3]) | IC50 (PEG-3 [2]; [4])
Cc1c(C#N)c(N)nc2c3c(sc12)NC(=O)CC3c1ccc(Cl)cc1 (centres undefined) | 14.2 µM | 17.4 µM | 11 µM
OC1(c2ccc(Cl)c(Cl)c2)C[n+]2ccccc2N1Cc1ccccc1 (centres undefined) | 15.1 µM | 16 µM | 14.1 µM
COc1ccc(OC)c(-c2cc(C(=O)N3CCN(c4ncccn4)CC3)c3ccccc3n2)c1 | inactive | 35 µM | > 100 µM
Cc1ccc(-c2cc(-c3ccc(C)cc3)[n+](-c3ccccc3)c(-c3ccc(C)cc3)c2)cc1 | > 100 µM (inactive) | > 100 µM | > 100 µM
O=C1NC(=S)N(c2ccccc2F)C(=O)/C1=C\c1cccs1 | 16.7 µM | 19.1 µM | 14.2 µM
O=c1[nH]c(=O)n(C2OC(CO)C(O)C2O)cc1F (centres undefined) | 14.3 µM | 25.6 µM | 3.07 µM
Cc1ccc(C(=O)NCCc2cccs2)cc1 | 12 µM | 3.98 µM | 20 µM
O=C(Nc1ccccc1)c1nc[nH]c1C(=O)NCCCCNC(=O)c1[nH]cnc1C(=O)Nc1ccccc1 | 11.3 µM | 17.7 µM | 4.92 µM
CCOC(=O)c1c(NC(C)=O)sc2c(OCC(O)CNC(C)(C)C)c(Br)ccc12 (centres undefined) | 13.6 µM | 18 µM | 9.14 µM
CN(Cc1ccccc1)C(=O)c1ccc(Nc2nc(C(N)Cc3ccccc3)cs2)nc1 (centres undefined) | 18.3 µM | 21.8 µM | 14.8 µM
COc1ccc(CC(N)c2csc(NC(=O)Nc3cc(OC)ccc3OC)n2)cc1 (centres undefined) | 16 µM | 16.5 µM | 15.6 µM
COc1ccc(C2c3ccc4ccccc4c3Oc3ncn(CCO)c(=N)c32)cc1OC (centres undefined) | 14.7 µM | 15.6 µM | 13.7 µM
c1cc2c3c(cccc3c1)NC1(CCC3(CC1)Nc1cccc4cccc(c14)N3)N2 | inactive | 18.4 µM | 44.7 µM
CC(C)(c1ccccc1)c1ccc(OCC(O)CNC2CCN(Cc3ccccc3)CC2)cc1 (centres undefined) | 15.7 µM | 21.9 µM | 9.42 µM
COc1ccc(C)cc1Nc1n[n+](-c2ccccc2)c(-c2ccc(N(C)C)cc2)s1 | inactive | 36.3 µM | 65.2 µM
CCc1cccc(CC)c1NC(=S)NCCc1c(C)[nH]c2ccc(C)cc12 | inactive | 29.6 µM | 13.8 µM
